The target of assay [1] is T1, LYNa (Homo sapiens, UniProt P07948).
T1 construct: purchased Carna Biosciences
The assay is described as follows: Kinase panel profiling at 1 µmol/L (mobility shift assay, Carna). The format is biochemical. The note with it: 1 µmol/L of BTK inhibitor.

Assay [2] addresses T2, ZAP70 (Homo sapiens, UniProt P43403).
T2 construct: purchased Carna Biosciences
T2 sequence (P43403 1-619): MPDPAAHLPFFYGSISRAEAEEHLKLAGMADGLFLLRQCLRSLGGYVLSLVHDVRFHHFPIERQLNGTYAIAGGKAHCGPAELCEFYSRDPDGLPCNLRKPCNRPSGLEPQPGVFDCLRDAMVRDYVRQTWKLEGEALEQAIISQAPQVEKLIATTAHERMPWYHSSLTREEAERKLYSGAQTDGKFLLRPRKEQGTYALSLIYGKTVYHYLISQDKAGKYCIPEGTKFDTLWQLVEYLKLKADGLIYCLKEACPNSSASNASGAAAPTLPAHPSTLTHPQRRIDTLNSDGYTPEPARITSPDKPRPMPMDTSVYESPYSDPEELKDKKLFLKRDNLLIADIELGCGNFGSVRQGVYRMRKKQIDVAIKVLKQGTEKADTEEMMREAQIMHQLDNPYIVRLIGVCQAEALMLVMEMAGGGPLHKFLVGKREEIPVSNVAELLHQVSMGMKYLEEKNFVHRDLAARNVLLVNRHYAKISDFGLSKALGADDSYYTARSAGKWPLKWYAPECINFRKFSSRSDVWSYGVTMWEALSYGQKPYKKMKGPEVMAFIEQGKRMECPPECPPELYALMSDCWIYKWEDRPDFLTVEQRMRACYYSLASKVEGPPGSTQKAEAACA
The assay is described as above. The class given is biochemical. To be noted: 1 µmol/L of BTK inhibitor.

Assay [3] concerns the target T3, BUB1/BUB3 (Homo sapiens, UniProt O43683).
T3 construct: purchased Carna Biosciences
Described as above. The class given is biochemical. The note with it: 1 µmol/L of BTK inhibitor.

Assay [4] has as its target T4, SGK2 (Homo sapiens, UniProt Q9HBY8).
T4 construct: purchased Carna Biosciences
T4 sequence (Q9HBY8 1-367): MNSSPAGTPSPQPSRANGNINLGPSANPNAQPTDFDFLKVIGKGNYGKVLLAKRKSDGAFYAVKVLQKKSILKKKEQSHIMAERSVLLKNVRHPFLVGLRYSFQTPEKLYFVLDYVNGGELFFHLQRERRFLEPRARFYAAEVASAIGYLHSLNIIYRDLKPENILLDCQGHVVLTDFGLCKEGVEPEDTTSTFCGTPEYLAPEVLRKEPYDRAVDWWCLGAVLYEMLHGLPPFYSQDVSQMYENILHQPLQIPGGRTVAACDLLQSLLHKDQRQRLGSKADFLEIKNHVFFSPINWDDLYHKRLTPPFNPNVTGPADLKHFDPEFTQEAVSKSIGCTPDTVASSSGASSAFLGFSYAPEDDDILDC
The description is as above. The class given is biochemical. The note with it: 1 µmol/L of BTK inhibitor.

For assay [5], the target named is T5, SLK (Homo sapiens, UniProt Q9H2G2).
T5 construct: purchased Carna Biosciences
Described as above. The note with it: 1 µmol/L of BTK inhibitor. The class given is biochemical.

Assay [6] deals with T6, NEK6 (Homo sapiens, UniProt Q9HC98).
T6 construct: purchased Carna Biosciences
Described as above. To be noted: 1 µmol/L of BTK inhibitor. The class given is biochemical.

Assay [7] addresses PDGFRα (Homo sapiens, UniProt P16234). The assay is described as follows: Kinase enzyme activity assay (mobility shift assay, Carna). The note with it: for Percentage inhibition of kinase enzyme activity: PDGFRα, 1 µmol/L of BTK inhibitor.
Assay [8] deals with T7, NEK9 (Homo sapiens, UniProt Q8TD19).
T7 construct: purchased Carna Biosciences
T7 sequence (Q8TD19 1-979): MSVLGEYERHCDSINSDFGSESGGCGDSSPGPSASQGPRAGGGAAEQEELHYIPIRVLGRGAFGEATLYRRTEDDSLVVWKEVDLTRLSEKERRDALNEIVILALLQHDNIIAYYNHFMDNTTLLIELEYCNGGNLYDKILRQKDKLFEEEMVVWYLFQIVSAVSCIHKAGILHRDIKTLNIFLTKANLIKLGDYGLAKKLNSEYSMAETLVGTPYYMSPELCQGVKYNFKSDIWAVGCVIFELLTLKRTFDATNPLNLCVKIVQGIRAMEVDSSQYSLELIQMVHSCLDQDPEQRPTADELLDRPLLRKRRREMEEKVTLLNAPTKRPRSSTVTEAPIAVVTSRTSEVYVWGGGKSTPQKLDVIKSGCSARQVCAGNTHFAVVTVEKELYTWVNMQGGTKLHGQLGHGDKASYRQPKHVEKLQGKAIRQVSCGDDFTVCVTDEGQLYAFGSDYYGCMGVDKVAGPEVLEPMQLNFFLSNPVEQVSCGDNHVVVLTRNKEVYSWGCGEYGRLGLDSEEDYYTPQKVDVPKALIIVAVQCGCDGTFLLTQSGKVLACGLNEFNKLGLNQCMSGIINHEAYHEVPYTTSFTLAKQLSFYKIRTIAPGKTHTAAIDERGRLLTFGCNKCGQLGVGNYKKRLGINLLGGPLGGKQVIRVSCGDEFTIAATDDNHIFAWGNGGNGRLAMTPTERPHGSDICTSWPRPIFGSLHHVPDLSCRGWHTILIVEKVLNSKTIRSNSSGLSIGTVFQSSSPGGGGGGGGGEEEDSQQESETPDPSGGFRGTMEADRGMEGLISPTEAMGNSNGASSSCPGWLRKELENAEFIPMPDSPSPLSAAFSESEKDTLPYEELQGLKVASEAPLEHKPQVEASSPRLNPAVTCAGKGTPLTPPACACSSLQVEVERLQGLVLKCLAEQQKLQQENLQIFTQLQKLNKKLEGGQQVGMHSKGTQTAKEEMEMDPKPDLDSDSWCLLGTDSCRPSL
The assay is described as follows: Kinase panel profiling at 1 µmol/L (mobility shift assay, Carna). The class given is biochemical. To be noted: 1 µmol/L of BTK inhibitor.

Sequence of PDGFRα (P16234 24-1089): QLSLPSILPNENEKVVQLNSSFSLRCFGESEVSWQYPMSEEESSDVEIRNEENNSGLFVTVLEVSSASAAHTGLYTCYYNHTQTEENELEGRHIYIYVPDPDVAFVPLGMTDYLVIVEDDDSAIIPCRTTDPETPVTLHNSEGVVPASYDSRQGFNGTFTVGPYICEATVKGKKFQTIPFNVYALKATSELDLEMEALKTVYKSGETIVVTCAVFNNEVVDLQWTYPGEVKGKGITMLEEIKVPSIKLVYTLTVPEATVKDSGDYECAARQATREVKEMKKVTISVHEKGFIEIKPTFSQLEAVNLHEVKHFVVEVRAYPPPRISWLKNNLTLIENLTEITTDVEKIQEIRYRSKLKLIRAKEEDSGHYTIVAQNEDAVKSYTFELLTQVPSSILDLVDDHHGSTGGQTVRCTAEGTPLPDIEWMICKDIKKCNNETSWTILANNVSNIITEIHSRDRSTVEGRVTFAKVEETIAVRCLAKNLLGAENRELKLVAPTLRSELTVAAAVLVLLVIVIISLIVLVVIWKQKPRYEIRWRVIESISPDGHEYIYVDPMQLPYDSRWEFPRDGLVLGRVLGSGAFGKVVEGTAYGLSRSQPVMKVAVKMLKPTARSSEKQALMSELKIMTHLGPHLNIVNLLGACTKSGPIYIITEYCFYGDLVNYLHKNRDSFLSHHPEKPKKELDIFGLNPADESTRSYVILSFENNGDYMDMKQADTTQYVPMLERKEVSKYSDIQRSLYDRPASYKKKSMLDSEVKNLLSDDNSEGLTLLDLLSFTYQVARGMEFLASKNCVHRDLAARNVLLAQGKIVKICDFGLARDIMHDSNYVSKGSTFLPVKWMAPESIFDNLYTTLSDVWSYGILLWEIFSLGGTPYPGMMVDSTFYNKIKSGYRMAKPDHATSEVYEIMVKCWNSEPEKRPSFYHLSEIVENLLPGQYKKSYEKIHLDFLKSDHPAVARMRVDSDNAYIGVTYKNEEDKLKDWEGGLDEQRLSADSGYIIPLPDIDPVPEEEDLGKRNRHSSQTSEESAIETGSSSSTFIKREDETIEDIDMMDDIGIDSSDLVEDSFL
T6 sequence (Q9HC98 whole entry): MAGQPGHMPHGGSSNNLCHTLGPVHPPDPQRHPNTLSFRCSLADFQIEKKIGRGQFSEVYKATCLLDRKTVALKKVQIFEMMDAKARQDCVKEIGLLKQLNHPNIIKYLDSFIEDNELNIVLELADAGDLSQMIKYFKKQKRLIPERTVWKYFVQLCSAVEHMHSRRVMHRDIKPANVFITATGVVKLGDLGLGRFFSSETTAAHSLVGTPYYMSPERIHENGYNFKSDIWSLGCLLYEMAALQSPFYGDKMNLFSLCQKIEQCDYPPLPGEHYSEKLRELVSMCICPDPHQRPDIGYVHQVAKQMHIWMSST
T5 sequence (Q9H2G2 whole entry): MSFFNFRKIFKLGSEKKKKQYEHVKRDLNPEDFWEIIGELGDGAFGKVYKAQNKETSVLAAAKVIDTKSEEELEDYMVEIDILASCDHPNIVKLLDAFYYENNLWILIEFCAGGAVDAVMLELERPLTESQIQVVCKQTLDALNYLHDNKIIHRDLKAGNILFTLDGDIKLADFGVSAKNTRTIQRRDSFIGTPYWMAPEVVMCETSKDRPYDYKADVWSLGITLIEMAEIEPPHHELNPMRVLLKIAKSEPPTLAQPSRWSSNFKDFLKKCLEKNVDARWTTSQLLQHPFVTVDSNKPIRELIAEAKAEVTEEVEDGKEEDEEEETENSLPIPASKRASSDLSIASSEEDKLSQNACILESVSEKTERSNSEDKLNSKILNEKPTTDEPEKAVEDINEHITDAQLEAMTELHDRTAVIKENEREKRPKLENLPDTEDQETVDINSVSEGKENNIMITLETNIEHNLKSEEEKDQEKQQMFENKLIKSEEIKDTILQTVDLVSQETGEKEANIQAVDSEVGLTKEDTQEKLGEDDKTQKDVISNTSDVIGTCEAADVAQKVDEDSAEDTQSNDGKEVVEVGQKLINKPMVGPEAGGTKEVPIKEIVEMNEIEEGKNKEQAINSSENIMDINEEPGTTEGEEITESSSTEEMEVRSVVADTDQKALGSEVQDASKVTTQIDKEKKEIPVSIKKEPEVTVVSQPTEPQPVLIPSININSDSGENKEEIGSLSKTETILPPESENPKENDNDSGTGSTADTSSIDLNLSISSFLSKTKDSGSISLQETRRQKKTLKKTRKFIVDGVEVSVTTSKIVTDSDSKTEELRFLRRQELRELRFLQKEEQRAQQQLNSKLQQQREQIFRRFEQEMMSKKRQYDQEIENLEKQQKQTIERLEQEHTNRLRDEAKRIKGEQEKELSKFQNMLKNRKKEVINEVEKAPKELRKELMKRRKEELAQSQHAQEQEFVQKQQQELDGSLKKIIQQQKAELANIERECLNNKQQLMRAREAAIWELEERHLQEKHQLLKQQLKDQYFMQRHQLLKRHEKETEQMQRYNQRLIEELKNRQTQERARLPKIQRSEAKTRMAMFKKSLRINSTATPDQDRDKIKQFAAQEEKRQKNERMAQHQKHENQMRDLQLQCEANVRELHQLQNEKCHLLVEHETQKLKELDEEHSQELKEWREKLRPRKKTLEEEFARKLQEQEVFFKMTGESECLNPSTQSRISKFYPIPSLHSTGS
T1 sequence (P07948 whole entry): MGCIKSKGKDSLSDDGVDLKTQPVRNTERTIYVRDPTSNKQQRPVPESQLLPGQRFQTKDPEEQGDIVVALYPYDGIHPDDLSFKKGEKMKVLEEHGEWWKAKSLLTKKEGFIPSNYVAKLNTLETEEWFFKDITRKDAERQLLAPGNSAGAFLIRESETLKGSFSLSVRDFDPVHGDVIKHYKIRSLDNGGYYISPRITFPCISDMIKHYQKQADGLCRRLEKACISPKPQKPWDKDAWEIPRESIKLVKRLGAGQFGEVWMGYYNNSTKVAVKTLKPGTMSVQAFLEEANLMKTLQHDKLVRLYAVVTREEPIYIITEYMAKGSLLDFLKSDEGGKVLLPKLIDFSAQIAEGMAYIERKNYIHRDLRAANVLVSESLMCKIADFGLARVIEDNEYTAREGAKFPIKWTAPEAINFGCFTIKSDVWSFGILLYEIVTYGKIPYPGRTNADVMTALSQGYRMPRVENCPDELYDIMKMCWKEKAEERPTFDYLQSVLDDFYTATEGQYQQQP
T3 sequence (O43683 whole entry): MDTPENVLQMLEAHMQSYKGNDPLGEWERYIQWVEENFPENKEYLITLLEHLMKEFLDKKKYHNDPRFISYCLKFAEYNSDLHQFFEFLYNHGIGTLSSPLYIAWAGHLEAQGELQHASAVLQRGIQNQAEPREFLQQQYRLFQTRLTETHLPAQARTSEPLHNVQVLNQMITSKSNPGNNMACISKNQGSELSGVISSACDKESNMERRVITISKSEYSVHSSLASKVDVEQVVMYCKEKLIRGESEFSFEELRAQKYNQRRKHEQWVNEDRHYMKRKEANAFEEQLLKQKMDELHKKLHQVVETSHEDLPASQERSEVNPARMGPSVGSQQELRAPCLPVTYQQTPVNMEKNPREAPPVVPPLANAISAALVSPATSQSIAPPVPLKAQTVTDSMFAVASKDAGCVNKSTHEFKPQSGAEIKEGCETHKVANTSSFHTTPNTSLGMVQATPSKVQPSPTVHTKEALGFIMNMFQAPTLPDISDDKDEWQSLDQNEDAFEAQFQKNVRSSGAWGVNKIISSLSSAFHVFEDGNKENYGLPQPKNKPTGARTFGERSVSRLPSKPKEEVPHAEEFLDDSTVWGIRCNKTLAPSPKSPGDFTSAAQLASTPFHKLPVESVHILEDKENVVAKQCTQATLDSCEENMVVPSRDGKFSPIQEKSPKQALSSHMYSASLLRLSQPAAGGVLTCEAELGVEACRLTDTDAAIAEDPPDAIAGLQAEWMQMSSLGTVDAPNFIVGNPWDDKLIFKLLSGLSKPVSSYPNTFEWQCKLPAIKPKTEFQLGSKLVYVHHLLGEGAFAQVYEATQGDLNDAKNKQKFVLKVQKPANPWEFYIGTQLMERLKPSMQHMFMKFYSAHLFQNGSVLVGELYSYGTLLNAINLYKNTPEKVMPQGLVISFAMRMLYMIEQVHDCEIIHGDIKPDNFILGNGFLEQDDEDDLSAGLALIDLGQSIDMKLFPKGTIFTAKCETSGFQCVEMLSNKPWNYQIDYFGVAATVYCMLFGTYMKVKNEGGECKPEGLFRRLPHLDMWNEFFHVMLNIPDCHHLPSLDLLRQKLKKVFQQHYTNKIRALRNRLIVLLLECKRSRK
T3 sequence (O43684 whole entry partner): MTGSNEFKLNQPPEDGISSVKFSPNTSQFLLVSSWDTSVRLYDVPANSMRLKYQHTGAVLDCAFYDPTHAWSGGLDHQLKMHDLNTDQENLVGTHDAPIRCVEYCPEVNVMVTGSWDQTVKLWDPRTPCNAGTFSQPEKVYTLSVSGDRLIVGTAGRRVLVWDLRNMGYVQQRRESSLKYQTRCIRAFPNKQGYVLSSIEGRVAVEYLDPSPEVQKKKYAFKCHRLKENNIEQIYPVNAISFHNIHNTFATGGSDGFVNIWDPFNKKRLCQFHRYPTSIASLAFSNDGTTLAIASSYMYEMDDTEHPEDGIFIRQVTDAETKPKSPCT

For the compound `CC#CC(=O)N1CCC[C@H]1c1nc(-c2ccc(C(=O)Nc3ccccn3)cc2)c2c(N)nccn12` [acalabrutinib], the “Percentage inhibition of kinase enzyme activity” value (“Percentage inhibition” for short) in assay [1] is given as 1.93%; in assay [2] it was -1.53%; in assay [3], 5.51%; in assay [4], -19.42%; in assay [5] it was 1.61%; in assay [6], -5.54%. Moreover, the “Percentage inhibition” value was 1.38% in assay [7] and -3.18% in assay [8].

Consider `C=CC(=O)N1CCC[C@@H](n2nc(-c3ccc(Oc4ccccc4)cc3)c3c(N)ncnc32)C1` [ibrutinib], for which the “Percentage inhibition” value in assay [1] is reported as 98.69%; in assay [2] it was -4.51%; in assay [3], 5.19%; in assay [5], 12.11%; in assay [6], 0.77%; in assay [7], 94.28%. Moreover, the “Percentage inhibition” value in assay [8] is on record as -3.28%.

As usually defined, the IC50 is the concentration at which inhibition is half-maximal. In the case of `O=C(c1ccc(Oc2ccccc2)cc1Cl)c1c[nH]c2ncnc(N[C@@H]3CC[C@@H](CO)OC3)c12` [nemtabrutinib], the “Percentage inhibition” value in assay [1] is recorded as 100.76%; in assay [2] it was 8.61%; in assay [3] it was -0.62%; in assay [4] it was 2.52%; in assay [5] it was 52.74%; in assay [6] it was -0.80%. Besides, the “Percentage inhibition” value is on record as 88.08% in assay [7] and -0.83% in assay [8]. In addition, the IC50 in assay [7] is 12.4 nM.

On to `COc1ccc(F)cc1C(=O)NCc1ccc(-c2nn([C@@H](C)C(F)(F)F)c(N)c2C(N)=O)cc1` [pirtobrutinib], for which the “Percentage inhibition” value in assay [1] was 46.22%; in assay [2] it was -3.75%; in assay [3] it was 3.40%; in assay [4], -0.16%; in assay [5], -0.40%; in assay [6] it was -2.92%. In addition, the figures for the “Percentage inhibition” value in assay [7] and in assay [8] were 3.06% and -2.20%, respectively.

In the case of `C=CC(=O)N1CCC([C@@H]2CCNc3c(C(N)=O)c(-c4ccc(Oc5ccccc5)cc4)nn32)CC1` [zanubrutinib], the “Percentage inhibition” value in assay [7] is reported as 3.66%.

Values taken from paper PMC12586182 (Frontiers in Oncology, 2025).
